Reference: patent publication US9606124B2, “Methods of detecting and treating stem-cell containing solid tumors” (The Regents of The University of Michigan, priority 2008, dated 2017)
“Also recorded” adds a separate entry of the source.

Assays:
FOXO3A = assay: Immunohistochemistry of FOXO3A in xenotransplants; parameters: species or system NOD/SCID mice; conditions: mouse, in vivo
Procedure: (§1) Immunostaining. For immunofluorescent staining, sorted CXCR1-positive cells were fixed with 95% methanol at −20° C. for 10 minutes. Cells were rehydrated in PBS and incubated with respective antibodies at room temperature for 1 hour. Primary antibodies used were P-FAK (1:50, Cell Signaling Technology), P-AKT (1:300, Cell Signaling Technology), and FOXO3a (1:250, Cell Signaling Technology). Slides were then washed and incubated 30 minutes with PE conjugated secondary antibodies (Jackson labs). The nuclei were counterstained with DAPI/antifade (Invitrogen) and coverslipped. […] Immunohistochemistry for the detection of ALDH1 (1:100, BD biosciences), P-FAK, P-AKT, FOXO3a expression was done on paraffin section (Ginestier et al. Am. J Pathol. 161:1223-1233, herein incorporated by reference in its entirety). Staining was done utilizing the Histostainplus kit (Zymed laboratories). Diaminobenzidine (DAB) or 3-amino-9-ethylcarbazole (AEC) was used as chromogen and sections were counterstained with hematoxylin.

ALDH1 = assay: Immunohistochemistry of ALDH1 in xenotransplants; format: in vivo, NOD/SCID mice; conditions: compared to untreated tumors
Procedure: as §1

FAS-ligand mRNA = assay: Quantitative RT-PCR of FAS-ligand mRNA in SUM159 cells; format: cell-based, human; conditions: repertaxin 100 nM, FAS agonist 500 ng/ml, docetaxel 10 nM, trihydrate
Procedure: RNA extraction and qRT-PCR. After SUM159 cells were treated, total RNA was isolated using RNeasy Mini Kit (QIAGEN) and utilized for real-time quantitative RT-PCR (qRT-PCR) assays in a ABI PRISM® 7900HT sequence detection system.

[1] = tested on: cells from primary tumors SUM159, MC1, UM2, UM3; assay: Re-implantation of cells from treated tumors into secondary mice; format: in vivo, NOD/SCID mice
Procedure: Animal model. […] Cells from these tumors were transplanted orthotopically in the humanized cleared fat-pad of NOD/SCID mice, without cultivation in vitro. […] 50,000 cells from each xenotransplants were injected in the humanized fat pad of NOD/SCID mice and monitored the tumor growth. […] The animals were euthanized when the tumors were approximately 1.5 cm in the largest diameter, to avoid tumor necrosis and in compliance with regulations for use of vertebrate animal in research. A portion of each fat pad injected was fixed in formalin and embedded in paraffin for histological analysis. The rest of the tumor cells were re-implantated into secondary NOD/SCID mice. […]

[2] = tested on: SUM159 cell line and human breast cancer xenografts MC1, UM2, UM3; assay: Tumor growth of breast cancer xenografts in the mammary fat pad; format: in vivo, NOD/SCID mice; conditions: repertaxin 15 mg/Kg s.c. twice a day 28 days, docetaxel 10 mg/Kg i.p. once a week, start at tumor size about 4 mm, trihydrate
Procedure: For each sample, 50,000 cells were injected into the mammary fat pad of NOD-SCID mice which were monitored for tumor size. Injections were started when the tumor size was about 4 mm.
(§2) Animal model. […] Cells from these tumors were transplanted orthotopically in the humanized cleared fat-pad of NOD/SCID mice, without cultivation in vitro. […] 50,000 cells from each xenotransplants were injected in the humanized fat pad of NOD/SCID mice and monitored the tumor growth. […] The animals were euthanized when the tumors were approximately 1.5 cm in the largest diameter, to avoid tumor necrosis and in compliance with regulations for use of vertebrate animal in research. A portion of each fat pad injected was fixed in formalin and embedded in paraffin for histological analysis. The rest of the tumor cells were re-implantated into secondary NOD/SCID mice. Serial dilutions of cells were utilized for the re-implantation with injection of 10,000, 1,000, and 100 cells for each treated tumor.

[3] = tested on: CD44+/CD24- cell population of MC1, UM2, UM3 xenografts; assay: CD44+/CD24- cells in treated tumors (flow cytometry); parameters: species or system NOD/SCID mice; conditions: mouse, in vivo
Procedure: as §2
Flow cytometry analysis. […] CD95/FAS staining were performed utilizing an anti-CD95 labeled APC (1:20, BD biosciences). […] Fresh cells were stained with 1 μg/ml PI (Sigma) for 5 min for viability.

[4] = tested on: ALDEFLUOR-positive cells of SUM159, MC1, UM2, UM3 tumors; assay: ALDEFLUOR assay on treated tumor xenografts; format: in vivo, NOD/SCID mice; conditions: residual tumors after four weeks of treatment; trihydrate
Procedure: ALDEFLUOR assay. […] In order to eliminate cells of mouse origin from the xenotransplanted tumors, cell population was stained with an anti-H2Kd antibody (BD biosciences, 1/200, 20 min on ice) followed by staining with a secondary antibody labeled with phycoerythrin (PE) (Jackson labs, 1/250, 20 min on ice).
as §2

[5] = tested on: normal mammary epithelial cells; assay: Mammosphere formation by normal mammary epithelial cells; format: cell-based, human; conditions: normal mammary epithelial cells in suspension, human recombinant IL-8
[6] = tested on: ALDEFLUOR-positive and -negative cells of HCC1954, MDA-MB-453, SUM159; assay: Matrigel invasion assay with IL8 as attractant; format: cell-based, human; conditions: IL8 100 ng/ml as attractant
Procedure: Invasion assay. Assays were done in triplicate in transwell chambers with 8 μm pore polycarbonate filter inserts for 12-well plates (Corning, N.Y.). Filters were coated with 30 ul of ice-cold 1:6 basement membrane extract (Matrigel, BD-Bioscience) in DMEM/F12 incubated 1 hour at 37° C. Cells were added to the upper chamber in 200 ul of serum-free medium. For the invasion assay, 5000 cells were seeded on the Matrigel-coated filters and the lower chamber was filled with 600 ul of medium supplemented with 10% human serum (Cambrex) or with 600 ul of serum-free medium supplemented with IL8 (100 ng/mL). After 48 hours incubation, the cells on the underside of the filter were counted using light microscopy. Relative invasion was normalized to the unseparated corresponding cell lines under serum condition.

[7] = tested on: HCC1954, SUM159, MDA-MB-453; assay: Tumorsphere formation of breast cell lines treated with IL8; format: cell-based; conditions: human recombinant IL8
Procedure: Anchorage-independent culture. ALDEFLUOR-positive, -negative and unseparated cells from 184A1, SUM149 and SUM159 were plated as single cells in ultra-low attachment plates (Corning, Acton, Mass.) at low density (5000 viable cells/ml). Cells were grown in serum-free mammary epithelial basal medium (Cambrex Bio Science, Walkerville, Md.) for 3-7 days, as described (18). The capacity of cells to form spheres was quantified after treatment with different doses of IL8 (GenWay Biotech, San Diego, Calif.) added to the medium.

[8] = tested on: four breast cell lines cultured in adherent conditions; assay: ALDEFLUOR-positive population of breast cell lines treated with IL8; format: cell-based; conditions: human recombinant IL8
Procedure: ALDEFLUOR Assay and Separation of the ALDH-positive Population by FACS. ALDH activity was assessed in 33 BCLs representing the main molecular subtypes of human breast cancer. The ALDEFLUOR kit (StemCell technologies, Durham, N.C., USA) was used to isolate the population with high ALDH enzymatic activity (17). Cells obtained from subconfluent cell lines after trypsinization or from freshly dissociated xenografts were suspended in ALDEFLUOR assay buffer containing ALDH substrate (BAAA, 1 μmol/l per 1×10^6 cells) and incubated for 40 minutes at 37° C. In each experiment a sample of cells was stained under identical conditions with […] of diethylaminobenzaldehyde (DEAB), a specific ALDH inhibitor, as negative control. Flow cytometry sorting was conducted using a FACStarPLUS (Becton Dickinson). ALDEFLUOR fluorescence was excited at 488 nm and detected using standard fluorescein isothiocyanate (FITC) 530/30 band pass filter. For xenotransplanted tumors, incubation with an anti-H2Kd antibody (BD biosciences, 1/200, 20 min on ice) followed by a secondary antibody labeled with phycoerythrin (Jackson labs, 1/250, 20 min on ice) was used to eliminate cells of mouse origin. […] For both cell lines, sorted ALDEFLUOR-positive populations contained more than 98% of ALDEFLUOR-positive cells and no ALDEFLUOR-positive cells were detected in the ALDEFLUOR-negative population.

CC(=O)O[C@@]12CO[C@@H]1C[C@H](O)[C@@]1(C)C(=O)[C@H](O)C3=C(C)[C@@H](OC(=O)[C@H](O)[C@@H](NC(=O)OC(C)(C)C)c4ccccc4)C[C@@](O)([C@@H](OC(=O)c4ccccc4)[C@H]21)C3(C)C [Docetaxel, (2R,3S)-N-carboxy-3-phenylisoserine, N-tert-butyl ester, 13-ester with 5b-20-epoxy-12a,4,7b,10b,13a-hexahydroxytax-11-en-9-one 4-acetate 2-benzoate, trihydrate]
nuclear FOXO3A in treated tumors (FOXO3A): detected | ALDH1-positive cells / ALDH1 expression in treated tumors (ALDH1): unchanged or increased | increase of FAS-ligand mRNA level compared to non-treated cells (FAS-ligand mRNA; listed as docetaxel): induced both IL-8 and FAS-ligand mRNA | increase of FAS-ligand mRNA level compared to non-treated cells (FAS-ligand mRNA): induced both FAS-ligand (A) and IL-8 (B) mRNA | Tumors/Injections ([1]; number of cells injected 100): 8/9 | Tumors/Injections ([1]; number of cells injected 250): 2/3 | Tumors/Injections ([1]; number of cells injected 500): 3/4 | Tumors/Injections ([1]; number of cells injected 1,000): 6/6 | Tumors/Injections ([1]; number of cells injected 2,500): 2/2 | Tumors/Injections ([1]; number of cells injected 5,000): 4/4 | Tumors/Injections ([1]; number of cells injected 10,000): 2/2 | secondary tumor formation / regrowth from serial dilutions of treated primary tumors ([1]; secondary NOD/SCID mice, no further treatment, trihydrate): formed secondary tumors at all dilutions | tumor size / tumor growth compared to the control ([2]; listed as docetaxel): significant inhibition of tumor growth; also recorded: statistically significant reduction of the tumor size | tumor size / tumor growth compared to the control [2]: statistically significant reduction of the tumor size | percent of CD44+/CD24- cells in residual tumors [3]: unchanged or increased percent | ALDEFLUOR-positive cells (cancer stem cells) in treated tumors, decrease compared to the control [4]: unchanged or increased

IL8: human recombinant IL8 (GenWay Biotech), chemokine ligand of CXCR1
formation of primary and secondary mammospheres [5]: increased the formation of primary (B) and secondary mammospheres (C) in a dose-dependent manner | formation of primary and secondary mammospheres ([5]; listed as IL-8): increased the formation of primary and secondary mammospheres in a dose-dependent manner | invasive capacity of ALDEFLUOR-negative cells [6]: did not have any effect; also recorded: no effect | invasion of ALDEFLUOR-positive cells through Matrigel ([6]; compared to serum): increased invasion; also recorded: significant increase | formation of primary and secondary tumorspheres [7]: increased the formation of primary and secondary tumorspheres in a dose-dependent manner; also recorded: increased the formation of primary and secondary tumorospheres in a dose-dependent manner | ALDEFLUOR-positive population [8]: increased the ALDEFLUOR-positive population in a dose-dependent manner
